# Experimental data published in ChEMBL document CHEMBL5523735 (J Med Chem, 2024).
# Biological target: T1, P2Y purinoceptor 14 (Homo sapiens, UniProt Q15391)
# T1 sequence (Q15391 whole entry): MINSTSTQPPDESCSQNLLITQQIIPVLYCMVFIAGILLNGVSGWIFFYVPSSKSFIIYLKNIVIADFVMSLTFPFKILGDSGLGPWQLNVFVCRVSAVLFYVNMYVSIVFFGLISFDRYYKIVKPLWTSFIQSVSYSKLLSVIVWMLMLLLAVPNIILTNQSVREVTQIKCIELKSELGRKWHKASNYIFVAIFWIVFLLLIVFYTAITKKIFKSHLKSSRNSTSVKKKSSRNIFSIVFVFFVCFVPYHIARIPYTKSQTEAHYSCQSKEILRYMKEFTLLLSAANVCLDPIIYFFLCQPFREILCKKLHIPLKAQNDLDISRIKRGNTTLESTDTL
# Experiment: Antagonist activity at P2Y14R (unknown origin) stably expressed in HEK293 cells assessed as inhibition of forskolin-induced cAMP production by cAMP-Glo assay
# Assay type: functional, cell-based
# Conditions: not given
row,IC50 [nM],SMILES
1,1060,Cc1ccc(Oc2sc(C(=O)O)cc2NC(=O)c2cnc(C)cn2)cn1
2,24500,COc1ccc(Oc2sc(C(=O)O)cc2NC(=O)c2ccc(C)cc2)cc1
3,1.52,O=C(CCCNC(=S)Nc1ccc2c(c1)C(=O)OC21c2ccc(O)cc2Oc2cc(O)ccc21)NCCCC(=O)N1CCC(c2ccc(-c3cc(C(=O)O)cc4cc(-c5ccc(C(F)(F)F)cc5)ccc34)cc2)CC1
4,3130,Cc1ccc(Oc2sc(C(=O)O)cc2NC(=O)c2cnc(C)nc2)cn1
5,104,Cc1ccc(C(=O)Nc2cc(C(=O)O)sc2Oc2ccccc2F)cc1
6,124,CCCc1ccc(Oc2sc(C(=O)O)cc2NC(=O)c2ccc(C)cc2)cc1

# Biological target: T2, P2Y purinoceptor 14 (Homo sapiens) (UniProt Q15391)
# T2 sequence (whole entry): T1 sequence (Q15391 whole entry)
# Conditions: HEK293, dose 100.0 nM
# Description: Antagonist activity at P2Y14R (unknown origin) stably expressed in HEK293 cells assessed as inhibition of forskolin-induced cAMP production at 100 nM by cAMP-Glo assay relative to control
row,inhibition [%],SMILES
1,39.9,Cc1ccc(C(=O)Nc2cc(C(=O)O)sc2Oc2ccc(Cl)cc2)cc1
2,16.2,Cc1ccc(C(=O)Nc2cc(C(=O)O)sc2Oc2ccc(C#N)cc2)cc1
3,33,Cc1ccc(Oc2sc(C(=O)O)cc2NC(=O)c2ccc(C#N)cc2)cn1
4,39.7,Cc1ccc(Oc2sc(C(=O)O)cc2NC(=O)c2ccc(C(F)(F)F)cc2)cn1
5,34.5,CC(=O)c1ccc(Oc2sc(C(=O)O)cc2NC(=O)c2ccc(C)cc2)cc1
6,21,Cc1ccc(Oc2sc(C(=O)O)cc2NC(=O)c2ccc(Cl)cc2)cn1
7,30.3,Cc1ccc(Oc2sc(C(=O)O)cc2NC(=O)c2ccc(C)nc2)cn1
8,12.2,Cc1ccc(Oc2sc(C(=O)O)cc2NC(=O)c2ccc(C(C)(C)C)cc2)cn1
9,32.7,Cc1ccc(C(=O)Nc2cc(C(=O)O)sc2Oc2ccc(OC(F)(F)F)cc2)cc1
10,36.2,Cc1ccc(C(=O)Nc2cc(C(=O)O)sc2Oc2cccc(Cl)c2)cc1

# Same assay, conditions: HEK293, filed as antagonist, dose 100.0 nM
row,inhibition [%],SMILES
1,71,Cc1ccc(Oc2sc(C(=O)O)cc2NC(=O)c2cnc(C)cn2)cn1
2,54.3,Cc1ccc(C(=O)Nc2cc(C(=O)O)sc2Oc2ccc(C(C)C)cc2)cc1
3,42.8,Cc1ccc(Oc2sc(C(=O)O)cc2NC(=O)c2cnn(C)c2)cn1
4,69.8,COc1ccc(Oc2sc(C(=O)O)cc2NC(=O)c2ccc(C)cc2)cc1
5,40.8,Cc1ccc(Oc2sc(C(=O)O)cc2NC(=O)c2ccc(N(C)C)cc2)cn1
6,54.4,Cc1ccc(C(=O)Nc2cc(C(=O)O)sc2Oc2ccc(C(C)(C)C)cc2)cc1
7,83.9,Cc1ccc(Oc2sc(C(=O)O)cc2NC(=O)c2cnc(C)nc2)cn1
8,66,Cc1ccc(C(=O)Nc2cc(C(=O)O)sc2Oc2ccccc2F)cc1
9,66.3,CCCc1ccc(Oc2sc(C(=O)O)cc2NC(=O)c2ccc(C)cc2)cc1
10,62,Cc1ccc(C(=O)Nc2cc(C(=O)O)sc2Oc2cccnc2)cc1
11,60.3,Cc1ccc(C(=O)Nc2cc(C(=O)O)sc2Oc2ccsn2)cc1
12,59.8,CCc1ccc(C(=O)Nc2cc(C(=O)O)sc2Oc2ccc(C)nc2)cc1
13,41.7,Cc1ccc(Nc2sc(C(=O)O)cc2NC(=O)c2ccc(C)cc2)cc1
14,60.1,Cc1ccc(C(=O)Nc2cc(C(=O)O)sc2Oc2ccc(C)nc2)nc1
15,46.6,Cc1ccc(Oc2sc(C(=O)O)cc2NC(=O)c2ccc(F)cc2)cn1
16,42.3,Cc1ccc(C(=O)Nc2cc(C(=O)O)sc2Oc2ccccc2)cc1
17,40.4,Cc1ccc(C(=O)Nc2cc(C(=O)O)sc2Oc2ccccc2Cl)cc1
18,55.8,Cc1ccc(C(=O)Nc2cc(C(=O)O)sc2Oc2cccc(C)c2)cc1
19,44.3,Cc1ccc(Oc2sc(C(=O)O)cc2NC(=O)c2ccc(C(C)C)cc2)cn1
20,62.8,Cc1ccc(C(=O)Nc2cc(C(=O)O)sc2Oc2ccc(S(C)(=O)=O)cc2)cc1
21,44.3,CCCc1ccc(C(=O)Nc2cc(C(=O)O)sc2Oc2ccc(C)nc2)cc1
22,63.2,COc1cccc(Oc2sc(C(=O)O)cc2NC(=O)c2ccc(C)cc2)c1
23,52.8,Cc1ccc(C(=O)Nc2cc(C(=O)O)sc2Oc2cccc(C(F)(F)F)c2)cc1
24,48.1,COc1ccccc1Oc1sc(C(=O)O)cc1NC(=O)c1ccc(C)cc1
25,45.8,Cc1ccc(C(=O)Nc2cc(C(=O)O)sc2Oc2ccccc2C)cc1
26,43.5,Cc1ccc(C(=O)Nc2cc(C(=O)O)sc2Oc2ccncc2)cc1
27,57.1,Cc1ccc(C(=O)Nc2cc(C(=O)O)sc2Oc2ccccc2C(F)(F)F)cc1
28,62.6,Cc1ccc(C(=O)Nc2cc(C(=O)O)sc2Oc2ccc(C(F)(F)F)cc2)cc1
29,44.1,Cc1ccc(C(=O)Nc2cc(C(=O)O)sc2Oc2ccc(C(=O)O)cc2)cc1
